Test results from patent US7786297B2, “Purified form of tanaproget” (Wyeth LLC, priority 2005, dated 2010).

Test: storage stability of purified tanaproget Form I (polymorph conversion)
Type: physicochemical
Conditions: storage of purified tanaproget Form I alone or in combination with other agents/excipients

SMILES: Cn1c(C#N)ccc1-c1ccc2c(c1)C(C)(C)OC(=S)N2 [purified tanaproget Form I, 5-(4,4-dimethyl-2-thioxo-1,4-dihydro-2H-3,1-benzoxazin-6-yl)-1-methyl-1H-pyrrole-2-carbonitrile]
- stability / conversion to another polymorph during storage: stable and less likely to convert to another polymorph during storage
